Read-outs that look alike come from different tables or passages of the source.
System: amyloid β production in transfected H4 (human neuroglioma) cells stably expressing APP constructs
Assay: In vitro cell-based assay of inhibitors of amyloid β production (ELISA)
Conditions: approximately 16 hours incubation, amyloid β in medium by ELISA, read-out: ACTIVITY (IC50, inhibition of amyloid β production)
Method in brief: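 Cells expressing wild-type or variant APP were plated ≥6 h before medium was replaced with compound-containing medium (initial screen 10-100 μM) and incubated ~16 h. Secreted Aβ in medium was quantified by sandwich ELISA (C-terminal-specific mouse monoclonal capture, N-terminal rabbit polyclonal detection) against an Aβ standard curve.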

[1] = transfected H4 cells stably expressing APP constructs
[2] = Homo sapiens, 16 h, transfected H4 cells expressing APP

## CC1CN(C(=O)CCCC[C@@H](C)N(c2cc(Cl)ccc2F)S(=O)(=O)c2ccc(Cl)cc2)CCS1(=O)=O (stereo partly drawn) [Example 1272]
[1]
  IC50: ≤ 25 nM

## CC1CS(=O)(=O)CCN1C(=O)CCCC[C@@H](C)N(c1cc(Cl)ccc1F)S(=O)(=O)c1ccc(Cl)cc1 (stereo partly drawn) [Example 1273]
[1]
  IC50: ≤ 25 nM

## CC1CN(CCCCC[C@@H](C)N(c2cc(Cl)ccc2F)S(=O)(=O)c2ccc(Cl)cc2)CCS1(=O)=O (stereo partly drawn) [Example 1274]
[1]
  IC50: ≤ 25 nM

## CC1CS(=O)(=O)CCN1CCCCC[C@@H](C)N(c1cc(Cl)ccc1F)S(=O)(=O)c1ccc(Cl)cc1 (stereo partly drawn) [Example 1275]
[1]
  IC50: ≤ 25 nM

## CCCC(c1cc(F)ccc1[C@@H](C)N(c1cc(F)ccc1F)S(=O)(=O)c1ccc(Cl)cc1)N1CCS(=O)(=O)C(C)C1 (stereo partly drawn) [Example 1278, (R)-4-Chloro-N-(2,5-difluorophenyl)-N-[1-[4-fluoro-2-[1-(1,1-dioxo-2-methyl-4-thiomorpholinyl)butyl]phenyl]ethyl]benzenesulfonamide]
Homo sapiens, 16 h, transfected H4 cells stably expressing APP constructs
  IC50: ≤ 25 nM

## CCNC(=O)OCC(C)N(c1cc(Cl)ccc1CO)S(=O)(=O)c1ccc(Cl)cc1 (stereo not drawn) [Example 1279]
[2]
  IC50: ≤ 25 nM

## CNC(=O)OC[C@@H](C)N(c1cc(Cl)ccc1CO)S(=O)(=O)c1ccc(Cl)cc1 [Example 1280]
[2]
  IC50: ≤ 25 nM

## CCCNC(=O)OC[C@@H](C)N(c1cc(Cl)ccc1CO)S(=O)(=O)c1ccc(Cl)cc1 [Example 1281]
[2]
  IC50: ≤ 25 nM

## C[C@H](COC(=O)NC(C)(C)C)N(c1cc(Cl)ccc1CO)S(=O)(=O)c1ccc(Cl)cc1 [Example 1282]
[2]
  IC50: ≤ 25 nM

## CCN(CC)C(=O)OC[C@@H](C)N(c1cc(Cl)ccc1CO)S(=O)(=O)c1ccc(Cl)cc1 [Example 1283]
[2]
  IC50: ≤ 25 nM

## C[C@H](COC(=O)NC1CCCCC1)N(c1cc(Cl)ccc1CO)S(=O)(=O)c1ccc(Cl)cc1 [Example 1284]
[2]
  IC50: ≤ 25 nM

## C[C@H](COC(=O)NCCCn1ccnc1)N(c1cc(Cl)ccc1CO)S(=O)(=O)c1ccc(Cl)cc1 [Example 1285]
[2]
  IC50: ≤ 25 nM

## CC(C)NC(=O)OC[C@@H](C)N(c1cc(Cl)ccc1CO)S(=O)(=O)c1ccc(Cl)cc1 [Example 1286]
[2]
  IC50: ≤ 25 nM

## C[C@H](COC(=O)N1CCCC1)N(c1cc(Cl)ccc1CO)S(=O)(=O)c1ccc(Cl)cc1 [Example 1287]
[2]
  IC50: ≤ 25 nM

## CC(CCOC(=O)NCCCn1ccnc1)N(c1cc(Cl)ccc1CO)S(=O)(=O)c1ccc(Cl)cc1 (stereo not drawn) [Example 1289]
[2]
  IC50: ≤ 25 nM

## C[C@H](CCCOC(=O)NCCCn1ccnc1)N(c1cc(Cl)ccc1CO)S(=O)(=O)c1ccc(Cl)cc1 [Example 1290]
[2]
  IC50: > 500 nM

## CC(CCOC(=O)NCCn1ccnc1)N(c1cc(Cl)ccc1CO)S(=O)(=O)c1ccc(Cl)cc1 (stereo not drawn) [Example 1291]
[2]
  IC50: ≤ 25 nM

## C[C@H](CCCOC(=O)NCCn1ccnc1)N(c1cc(Cl)ccc1CO)S(=O)(=O)c1ccc(Cl)cc1 [Example 1292]
[2]
  IC50: > 10000 nM

## C[C@H](COC(=O)NCCn1ccnc1)N(c1cc(Cl)ccc1CO)S(=O)(=O)c1ccc(Cl)cc1 [Example 1293]
[2]
  IC50: > 10000 nM

## C[C@H](COC(=O)NCCCn1cnnn1)N(c1cc(Cl)ccc1F)S(=O)(=O)c1ccc(Cl)cc1 [Example 1294]
[2]
  IC50: ≤ 25 nM

## C[C@H](COC(=O)NCCCn1ncnn1)N(c1cc(Cl)ccc1F)S(=O)(=O)c1ccc(Cl)cc1 [Example 1295]
[2]
  IC50: ≤ 25 nM

## CCN(CCCn1ccnc1)C(=O)OC[C@@H](C)N(c1cc(Cl)ccc1CO)S(=O)(=O)c1ccc(Cl)cc1 [Example 1296]
[2]
  IC50: > 10000 nM

## C[C@H](CCCOC(=O)N(C)CCO)N(c1cc(Cl)ccc1CO)S(=O)(=O)c1ccc(Cl)cc1 [Example 1297]
[2]
  IC50: ≤ 25 nM

## C[C@H](CCCOC(=O)N1CCCC1)N(c1cc(Cl)ccc1CO)S(=O)(=O)c1ccc(Cl)cc1 [Example 1298]
[2]
  IC50: ≤ 25 nM

## CCCCNC(=O)[C@@H](C)N(c1cc(Cl)ccc1F)S(=O)(=O)c1ccc(Cl)cc1 [Example 1299]
[2]
  IC50: 100 to 500 nM

## C[C@H](C(=O)NCc1ccco1)C(c1cc(Cl)ccc1F)S(=O)(=O)c1ccc(Cl)cc1 (stereo partly drawn) [Example 1300]
[2]
  IC50: 100 to 500 nM

## C[C@H](C(=O)NCCN1CCOCC1)N(c1cc(Cl)ccc1F)S(=O)(=O)c1ccc(Cl)cc1 [Example 1301]
[2]
  IC50: > 500 nM

## C[C@H](C(=O)NCCC(c1ccccc1)c1ccccc1)N(c1cc(Cl)ccc1F)S(=O)(=O)c1ccc(Cl)cc1 [Example 1302]
[2]
  IC50: > 500 nM

## C[C@H](C(=O)NCC1CC1)C(c1cc(Cl)ccc1F)S(=O)(=O)c1ccc(Cl)cc1 (stereo partly drawn) [Example 1303]
[2]
  IC50: 100 to 500 nM

## C[C@H](C(=O)NCCc1ccncc1)N(c1cc(Cl)ccc1F)S(=O)(=O)c1ccc(Cl)cc1 [Example 1304]
[2]
  IC50: 100 to 500 nM

## C[C@H](C(=O)NCCc1ccc(Cl)cc1Cl)N(c1cc(Cl)ccc1F)S(=O)(=O)c1ccc(Cl)cc1 [Example 1305]
[2]
  IC50: > 500 nM

## C[C@H](C(=O)NC[C@]12CC3C[C@H](C[C@H](C3)C1)C2)N(c1cc(Cl)ccc1F)S(=O)(=O)c1ccc(Cl)cc1 [Example 1306]
[2]
  IC50: > 500 nM

## C[C@H](C(=O)NC1CCCC1)C(c1cc(Cl)ccc1F)S(=O)(=O)c1ccc(Cl)cc1 (stereo partly drawn) [Example 1307]
[2]
  IC50: 100 to 500 nM

## C[C@H](C(=O)NC1CCCCC1)N(c1cc(Cl)ccc1F)S(=O)(=O)c1ccc(Cl)cc1 [Example 1308]
[2]
  IC50: 100 to 500 nM

## C[C@H](C(=O)NC1CCCc2ccccc21)N(c1cc(Cl)ccc1F)S(=O)(=O)c1ccc(Cl)cc1 (stereo partly drawn) [Example 1309]
[2]
  IC50: > 500 nM

## C[C@H](C(=O)NC1Cc2ccccc2C1)N(c1cc(Cl)ccc1F)S(=O)(=O)c1ccc(Cl)cc1 [Example 1310]
[2]
  IC50: > 500 nM

## C[C@H](C(=O)Nc1ccc2[nH]ncc2c1)N(c1cc(Cl)ccc1F)S(=O)(=O)c1ccc(Cl)cc1 [Example 1311]
[2]
  IC50: > 500 nM

## CCN(CC)CCCC(C)NC(=O)[C@@H](C)N(c1cc(Cl)ccc1F)S(=O)(=O)c1ccc(Cl)cc1 (stereo partly drawn) [Example 1312]
[2]
  IC50: > 500 nM

## C[C@H](C(=O)NCc1ccncc1)N(c1cc(Cl)ccc1F)S(=O)(=O)c1ccc(Cl)cc1 [Example 1313]
[2]
  IC50: 100 to 500 nM

## C[C@H](C(=O)NCCc1c(Cl)cccc1Cl)N(c1cc(Cl)ccc1F)S(=O)(=O)c1ccc(Cl)cc1 [Example 1314]
[2]
  IC50: 100 to 500 nM

## CCN(CCNC(=O)[C@@H](C)N(c1cc(Cl)ccc1F)S(=O)(=O)c1ccc(Cl)cc1)c1cccc(C)c1 [Example 1315]
[2]
  IC50: > 500 nM

## C[C@H](C(=O)NC1CCC(C(C)(C)C)CC1)N(c1cc(Cl)ccc1F)S(=O)(=O)c1ccc(Cl)cc1 (stereo partly drawn) [Example 1316]
[2]
  IC50: > 500 nM

## C[C@H](C(=O)NCCc1cccs1)N(c1cc(Cl)ccc1F)S(=O)(=O)c1ccc(Cl)cc1 [Example 1317]
[2]
  IC50: > 500 nM

## C[C@H](C(=O)NCCOc1ccccc1)N(c1cc(Cl)ccc1F)S(=O)(=O)c1ccc(Cl)cc1 [Example 1318]
[2]
  IC50: > 500 nM

## C[C@H](C(=O)NCc1ccc2c(c1)OCO2)N(c1cc(Cl)ccc1F)S(=O)(=O)c1ccc(Cl)cc1 [Example 1319]
[2]
  IC50: > 500 nM

## CCOCCCNC(=O)[C@@H](C)N(c1cc(Cl)ccc1F)S(=O)(=O)c1ccc(Cl)cc1 [Example 1320]
[2]
  IC50: 100 to 500 nM

## C[C@H](C(=O)NCC1CCCO1)N(c1cc(Cl)ccc1F)S(=O)(=O)c1ccc(Cl)cc1 (stereo partly drawn) [Example 1321]
[2]
  IC50: 100 to 500 nM

## C[C@H](C(=O)NCCCN1CCOCC1)N(c1cc(Cl)ccc1F)S(=O)(=O)c1ccc(Cl)cc1 [Example 1322]
[2]
  IC50: > 500 nM

## C[C@H](C(=O)NC[C@@H]1CC[C@H]2C[C@@H]1C2(C)C)N(c1cc(Cl)ccc1F)S(=O)(=O)c1ccc(Cl)cc1 [Example 1323]
[2]
  IC50: > 500 nM

## C[C@H](C(=O)NCCCCc1ccccc1)N(c1cc(Cl)ccc1F)S(=O)(=O)c1ccc(Cl)cc1 [Example 1324]
[2]
  IC50: > 500 nM

## Cc1ccc(CCNC(=O)[C@@H](C)N(c2cc(Cl)ccc2F)S(=O)(=O)c2ccc(Cl)cc2)cc1 [Example 1325]
[2]
  IC50: > 500 nM

## C[C@H](C(=O)NCCc1ccc(F)cc1)N(c1cc(Cl)ccc1F)S(=O)(=O)c1ccc(Cl)cc1 [Example 1326]
[2]
  IC50: > 500 nM

## C[C@H](C(=O)NCc1c(F)cccc1F)N(c1cc(Cl)ccc1F)S(=O)(=O)c1ccc(Cl)cc1 [Example 1327]
[2]
  IC50: > 500 nM

## C[C@H](C(=O)NCC(C)(C)CO)N(c1cc(Cl)ccc1F)S(=O)(=O)c1ccc(Cl)cc1 [Example 1328]
[2]
  IC50: 100 to 500 nM

## C[C@H](C(=O)N(CCN)c1ccccc1)N(c1cc(Cl)ccc1F)S(=O)(=O)c1ccc(Cl)cc1 [Example 1329]
[2]
  IC50: > 500 nM

## C[C@H](C(=O)NCc1cccc(I)c1)N(c1cc(Cl)ccc1F)S(=O)(=O)c1ccc(Cl)cc1 [Example 1330]
[2]
  IC50: > 500 nM

## C[C@H](C(=O)NCCc1ccc(O)cc1)N(c1cc(Cl)ccc1F)S(=O)(=O)c1ccc(Cl)cc1 [Example 1331]
[2]
  IC50: > 500 nM

## C[C@H](C(=O)NCc1cccnc1)N(c1cc(Cl)ccc1F)S(=O)(=O)c1ccc(Cl)cc1 [Example 1332]
[2]
  IC50: 100 to 500 nM

## CCCCN(CCCC)CCCNC(=O)[C@@H](C)N(c1cc(Cl)ccc1F)S(=O)(=O)c1ccc(Cl)cc1 [Example 1333]
[2]
  IC50: > 500 nM

## C[C@H](C(=O)NCc1ccc(F)c(F)c1)N(c1cc(Cl)ccc1F)S(=O)(=O)c1ccc(Cl)cc1 [Example 1334]
[2]
  IC50: > 500 nM

## CC(CCCC(C)(C)O)NC(=O)[C@@H](C)N(c1cc(Cl)ccc1F)S(=O)(=O)c1ccc(Cl)cc1 (stereo partly drawn) [Example 1335]
[2]
  IC50: > 500 nM

## C[C@H](C(=O)Nc1cc(Cl)ccc1O)N(c1cc(Cl)ccc1F)S(=O)(=O)c1ccc(Cl)cc1 [Example 1336]
[2]
  IC50: > 500 nM

## CCCCCCCCCCCCCCNC(=O)[C@@H](C)N(c1cc(Cl)ccc1F)S(=O)(=O)c1ccc(Cl)cc1 [Example 1337]
[2]
  IC50: > 500 nM

Reference: patent publication US6967196B1, “Sulfonamide compounds and uses thereof” (Bristol-Myers Squibb Company, priority 1999, dated 2005)
